These results are taken from patent publication US20260318831A1 (University of Cincinnati, priority 2023, published 2026).

The test system of data set [1] is endolysosomes in HeLa cells. The experiment in a line: Resolution limit in LIGHTNING confocal images. The data set is classed as cell-based. The text has this: The fluorescence images of PyQPMe were compared before and after the LIGHTNING module. […] To test the resolution limit of PyQPMe, confocal images were stochastically selected, and underlined the areas with luminescence in the images (FIG. 4A, 4C). The FWHMs (full width at half maximum) of these bright puncta fluorescence of PyQPMe-stained endolysosomes and later endosomes/lysosomes are down to 174 nm and 184 nm (FIG. 4B, 4D), respectively.
(§1) Leica Stellaris 8 Confocal imaging. High-resolution images were acquired on a commercial Leica Stellaris 8 Confocal Microscope under LIGHTNING mode. Laser powers were set at 10% intensity for 405 nm and 640 nm channels. The objective was 63×/1.4. High-resolution images were captured from the randomly selected field of view and analyzed with Leica LAS X and ImageJ software. All the images were exported on the Auto scale of the Leica LAS X software. Cells were seeded on glassed-bottomed cell dishes (MatTek) for 24 hours. Cells stained with PyQPMe (20 nM, 10 min) were treated with Wortmannin (1 μM, 24 h), CCCP ([…], 24 h), rapamycin (0.5 μM, 24 h), chloroquine (25 μM, 30 min), and NH4Cl (50 mM, 30 min). All PCC values were analyzed in the CellProfiler.

A short description of data set [2]: n-octanol/water partition coefficient by shake-flask ultraviolet spectrophotometry. In kind it is physicochemical. The conditions noted are these: room temperature, read-out: n-octanol/water partition coefficient (Log P). As to the method: The measurements of hydrophilicity. Hydrophilicity was determined by a shake-flask ultraviolet spectrophotometry method to measure the n-octanol/water partition coefficients (Log P). First, 25 mL of n-octanol and 25 mL of water were mixed at room temperature. After 24 h, the standard solutions of the sample (10 μM) were prepared by using the preceding saturated n-octanol phase and water phase solution, respectively. Later, the test solutions were prepared by mixing 10 ml of standard solution in n-octanol and 10 ml of standard solution in water. After shaking, the mixture of test solution was centrifuged for 5 min. The n-octanol phase layer was separated from the water phase layer and the absorbance of the two layers was measured by Agilent Cary 8453 spectrophotometer. Based on the Beer-Lambert law, the concentrations of the sample in the n-octanol phase (Co) and the water phase (Cw) were calculated. Finally, the n-octanol/water partition coefficients (Log P) were further calculated by using the following equation: […]

In data set [3] the test system is HeLa cells. In words: CCK-8 cell viability and cytotoxicity assay. The following applies: within 24 h incubation, 0~10 μM. The data set is classed as cell-based. As to the method: In some aspects, the probes of the present disclosure can be administered to living cells, either in vitro or in vivo. To take advantage of the absorption and emission spectra of PyQPMe, this probe was administered in high-resolution microscopy for living cells. The toxicity of PyQPMe was examined at first before characterizing its imaging properties. Cell Counting Kit-8 (CCK-8) was used to investigate the viability of HeLa cells stained with PyQPMe. […] Next, PyQPMe was characterized by Leica Stellaris Confocal Microscope in the LIGHTNING module for high-resolution imaging. […] The signal tended to be endolysosomes because endolysosomes have a low pH range from 4.7 to 6.3. […] Since low temperatures can inhibit endocytosis, experiments at a lower temperature were performed.
Cell viability and cytotoxicity assay. […] The viability was determined by adding 10 μL reagent from a cell counting kit-8 (CCK-8) (Dojindo Molecular Technologies, Inc.) and incubating at 37° C. for 1 h. CCK-8 solution was added to each well and the OD value for each well was read at wavelength 490 nm on a microplate reader (BioTek Instruments, Inc., USA). The interference of absorbance from PyQPMe at 490 nm was minimal compared to the CCK-8 reagent during measurement.

In data set [4] the test system is endolysosomes in HeLa cells. In words: Dynamics of PyQPMe-stained endolysosomes (puncta counting). The data set is classed as cell-based. As to the method: FIGS. 5A-5H depict the characterization of dynamics of PyQPMe-stained endolysosomes. FIG. 5A. Confocal images of HeLa cells stained with PyQPMe following treatment with or without Wortmannin for 24 h. FIG. 5B. Schematic illustration of the effect of Wortmannin which inhibits the conversion from early endosomes into late endosomes. FIG. 5C. Quantification of total endolysosomes and late endosomes/lysosomes in PyQPMe-stained HeLa cells with or without Wortmannin treatment. FIG. 5D. The ratio of the number of late endosomes/lysosomes to total endolysosomes in PyQPMe-stained HeLa cells treated with or without Wortmannin. FIG. 5E. Confocal images of HeLa cells stained with PyQPMe for 10 min and 60 min. FIG. 5F. The mean red puncta fluorescence intensity of PyQPMe-stained HeLa cells for 10 min and 60 min incubation. FIG. 5G. Quantification of total endolysosomes and late endosomes/lysosomes in PyQPMe-stained HeLa cells for 10 min and 60 min. FIG. 5H. The ratio of the number of late endosomes/lysosomes to total endolysosomes in PyQPMe-stained HeLa cells for 10 min and 60 min. Data are given as M±SEM (n=10 independent samples from 10 cells for each statistical analysis); the statistical differences were analyzed by Student's t-test, p<0.05 is considered to statistical significant (** p≤0.01; *** p≤0.001; **** p≤0.0001; ns p>0.05).
Because of the popularity of quantitative cell biology, it is important to design powerful tools that can digitize individual cells and subcellular organelles to elucidate biological problems in detail. With its great pH response, long-term photostability, and excellent signal-to-noise ratio for high-resolution imaging, PyQPMe was successfully used to track the dynamics of endolysosomes within cells by counting the number of puncta fluorescence signals in both green and red channels (FIG. 5A).
Next, the effects of different incubation time on the endocytic pathway were tested.
as §1

Data set [5] can be described thus: Effect of potential biochemical species on fluorescence intensity. The data set is classed as physicochemical. The conditions noted are these: pH 3.0 or 8.2; cations, anions, H2O2, Cys, Hcy, GSH. The text has this: (§2) Next, the effect of potential biochemical species on the fluorescence intensity of PyQPMe in both pH 3.0 and 8.2 buffer solutions was investigated. […] Fluorescence spectra of PyQPMe in various solvents with different polarities were also obtained. […] Furthermore, the photostability of PyQPMe was investigated under different pH conditions. […] Taken together, the above photophysical results identify that PyQPMe is a pH-sensitive probe, well suited for studying endolysosome dynamics via high-resolution imaging techniques.

A short description of data set [6]: Photostability under irradiation in neutral and acidic solutions. The conditions noted are these: 300 s irradiation. In kind it is physicochemical.
Text: as §2

Regarding `CN1CCN(c2ccc(/C=C/c3ccc4cc(-c5ccncc5)ccc4[n+]3C)cc2)CC1` [PyQPMe, (E)-1-methyl-2-(4-(4-methylpiperazin-1-yl)styryl)-6-(pyridin-4-yl)quinolin-1-ium], the “FWHM of puncta, endolysosomes” value in data set [1] (PyQPMe-stained endolysosomes) worked out at 174 nm. Besides, the “FWHM of puncta, late endosomes/lysosomes” value in data set [1] (PyQPMe-stained late endosomes/lysosomes) is 184 nm. Also, the logP at 10 µM in data set [2] was about -0.65. Moreover, the “effect on viability of HeLa cells” value in data set [3] is “no effects on the viability of HeLa cells”. Moreover, in data set [4] (60 min vs 10 min incubation), the “intensity of puncta fluorescence in red channel” value is “increased during 60 min incubation”; the “number of total endolysosomes and late endosomes/lysosomes detected” value was “more PyQPMe-stained total endolysosomes and late endosomes/lysosomes were simultaneously detected”. Further, in data set [4] (regardless of incubation time (10 min, 60 min)), the “percentage of late endosomes/lysosomes in total endolysosomes” value is reported as “remained stable”. Further, in data set [5], the “effect of interfering substances on emission intensity” value is given as “none of these interfering substances could quench the emission intensity”. In addition, in data set [6], the “photostability: change of fluorescence intensity” value is recorded as “negligible change”.
